For this test, the system named is HIV-1 (RF). Put plainly: HIV RNA assay: microplate based compound evaluation in HIV-1 infected MT-2 cells. The class given is cell-based. The note with it: Human immunodeficiency virus 1, MT2, 72 h; HIV-1 (RF) infected MT-2 cells, 3 days of culture; virus dilutions were selected to give this value (standardisation of inoculum); read-out: IC90 value (concentration of compound required to reduce the HIV RNA level by 90%). Here is the method:
MT-2, CEM, and H9 cells were maintained in RPMI 1640 supplemented with 5% fetal calf serum (FCS), 2 mM L-glutamine and 50 μg/mL gentamycin, all from Gibco. Laboratory strains of HIV-1 (RF, MN and IIIB) were propagated in H9 cells in the same medium. Virus stocks were prepared approximately 1 month after acute infection of H9 cells by clarification of the tissue culture medium and storage of aliquots at -70° C. Infectious titers of HIV-1 (RF) stocks were 1-3×10^7 PFU (plaque forming units)/mL as measured by plaque assay on MT-2 cells (see below). Each aliquot of virus stock used for infection was thawed only once. […]
Cell lysates or purified RNA in 3M or 5M GED were mixed with 5M GED and capture probe to a final guanidinium isothiocyanate concentration of 3M and a final biotin oligonucleotide concentration of 30 nM. […] Immobilized alkaline phosphatase activity was detected by addition of 100 μL of 0.2 mM 4-methylumbelliferyl phosphate (MUBP, JBL Scientific) in buffer δ(2.5M diethanolamine pH 8.9 (JBL Scientific), 10 mM MgCl2, 5 mM zinc acetate dihydrate and 5 mM N-hydroxyethyl-ethylene-diamine-triacetic acid). […] Fluorescence at […] was measured using a microplate fluorometer (Dynateck) exciting at 365 nm.
Compounds to be evaluated were dissolved in DMSO and diluted in culture medium to twice the highest concentration to be tested and a maximum DMSO concentration of 2%. […]

For one compound, IC90 results are on record in US5763469A, “Substituted cyclic ureas and derivatives thereof useful as retroviral protease inhibitors” (The DuPont Merck Pharmaceutical Company, priority 1996, dated 1998).

≈ marks a conversion by molar mass, not a printed value.

As for `Nc1ccn([C@H]2CC[C@@H](CO)O2)c(=O)n1` [ddC, dideoxycytidine], the IC90 was determined as 0.2 µg/mL (≈ 0.947 µM).
